Data from patent publication US20230416750A1, “CATALYTIC SEQUENCE BASED METHODS OF TREATING OR PREVENTING BACTERIAL INFECTIONS” (priority 2020, published 2023).
{3CholTEG} = cholesteryl-TEG conjugate

Assays:
[1] = system: Klebsiella pneumoniae ATCC BAA-1705; assay: Growth assays / MIC / viability (OD600, CFU) with meropenem; format: cell-based
Protocol: Cultures were incubated at 37° C. with continuous shaking and the optical density OD600 was recorded every 30 minutes using Ultrospec 10 (biochrom). Viability was tested by serial dilutions (1:100) of the bacterial suspensions and spots were plated on LB plates. The plates were incubated at 37° C. and on the next day CFU was counted to determine culture viability.

[2] = system: Klebsiella pneumoniae; assay: Lung ex-vivo infection model (mouse lung punches, CFU); format: cell-based; conditions: sub-toxic meropenem alone or with DNAzyme/scramble; 24 hours
Protocol: Lungs were harvested from 5-10 mice (C57BL/6, 6-8 weeks old) and placed in petri dishes containing DMEM 5% FCS. The tissue was divided into circular pieces 3 mm in diameter with a biopsy punch and transferred to poly-propanol tubes with 3 ml DMEM. DMEM was applied with meropenem and DNAzymes, as indicated. To each respective tube 10 μl of mid-logarithmic Klebsiella pneumoniae culture was added—with three technical repeats for each condition. The plates were incubated at 37° C. for approximately 1 days (24 hours), washed twice with PBS.
For CFU of bacteria infecting ex vivo tissue culture: individual punches or their growth media were collected, Punches were resuspended in 1 ml PBS (Biological Industries), and free-living bacteria were pelleted and resuspended in PBS at the same volume. Samples were thoroughly vortexed (5 min). The samples were then mildly manually crushed using 1.5 ml pestle. In all cases, to determine the number of viable cells, samples were serially diluted in PBS, plated on LB plates, and colonies were counted after incubation at 37° C. overnight.

[3] = system: Klebsiella pneumoniae strain ATCC BAA-1705; assay: Galleria mellonella virulence assay (larvae viability); format: in vivo; conditions: infected G. mellonella larvae
Protocol: Larvae virulence experiments were performed in the facilities of Pharmaseed LTD (Ness Ziona, Israel). G. larvae were obtained from BioSystems Technologies (Exeter, UK) and stored in the shipment boxes at 15° C. for two weeks or at room temperature for immediate use with no requirement of food. Larvae were randomly selected from a large batch for an approximate weight of 250±25 mg. Larvae were separated from sawdust and selected for plumped, lighter colored worms. Darker colored, dehydrated worms, were discarded. Each treatment group (20 larvae per group) contained 10 larvae placed in a 10 cm empty Petri dish (2 dishes per treatment group), on a filter paper.
Bacterial inoculums were prepared from cultures grown overnight at 37° C. in TSB medium (HyLabs, Israel) and washed with sterile 1×PBS. Bacterial suspension concentration was determined by McFarland (Densicheck plus, Biomerieux) and diluted in sterile PBS to receive 10^9 CFU/mL. Serial dilutions of the bacterial suspensions were made and spots were plated on blood agar plates. The plates were incubated at 37° C. and on the next day CFU was counted in order to determine final injected bacterial concentrations.
Each larva was initially injected with 5×10^5 cells into the proleg. A second injection to the proleg was done with meropenem (10 μg/g), meropenem+DNAzyme (8.52 μg/g) or sterile PBS. […]

[4] = system: Klebsiella pneumoniae (ATCC BAA-1705); assay: KP infected thigh muscle model in neutropenic mice; format: in vivo; conditions: SC TID, 240 mg/kg meropenem alone or with KPC-337 16, 24 or 32 mg/kg
Protocol: Neutropenia induction: The experiments were performed on female ICR mice age 9-10 weeks. At day (−4) neutropenia induction was performed by cyclophosphamide intraperitoneal (IP) injection at 150 mg/kg and a volume of 10 mL/kg. At day (−1) neutropenia maintenance was performed by cyclophosphamide IP injection at 100 mg/kg and a volume of 10 mL/kg.
Bacterial suspension preparation: At day (−4) KP (ATCC® BAA-1705™) bacteria was streaked out from −80° C. glycerol stock onto LB medium and incubated at 37° C. for 20 hours and then stored at 2-8° C. At day (−1) single colonies of the KP (ATCC® BAA-1705™ bacteria) were picked by using an inoculation loop (Greiner, 731175) and suspended in 20 mL Tryptic Soy broth (TSB) (Hylabs, BIO-MO11) in Erlenmeyer and incubated at 37° C. overnight (=starter) with shaking at 180 rpm. In the morning of dosing day, bacterial starter was diluted in fresh TSB (total of 20 mL) and incubated for about 1-3 hours at 37° C. […] Bacterial suspension concentration was determined by McFarland (Densicheck plus, Biomerieux) and diluted in sterile PBS to a concentration of 2.2×10^7 CFU/mL. […]
Bacterial burden determination: Homogenate samples dilutions were plated on LB agar plates at various dilutions to determine the colony forming units (CFUs). Plates were incubated overnight (at 37° C.), and bacterial burden was calculated and expressed as CFUs/gram of tissue.

[5] = system: bla-KPC RNA transcripts; assay: Bla-KPC quantification from bacterial cells (qPCR); format: cell-based; conditions: DNAzyme 1.25 μM with sub-toxic meropenem (128 μg/ml), 20 minutes; vs untreated control
Protocol: Total RNA was extracted from each sample using RNeasy Mini Kit (Qiagen), according to the manufacturer's instructions. The concentration, purity, and integrity of total RNA was determined using NanoDrop and gel electrophoresis. cDNA synthesis was performed using iScript™ cDNA synthesis (Bio-Rad) according to the manufacturer's instructions. Equal amounts of total RNA (1000 ng/20 μL) were reverse-transcribed in all samples. Reactions were incubated in a CFX96 Touch Real-Time PCR detection system (Bio-Rad) by the following program: 25° C. for 5 minutes, 46° C. for 20 minutes, 95° C. for 60 seconds. Bla-KPC expression was determined by qPCR, with primers designed using NCBI primer-BLAST. qPCR analysis was performed using the iTaq Universal SYBR Green Supermix (Bio-Rad) according to the manufacturer's instructions, in a CFX96 system by the following program: 95° C. for 3 minutes, 39 cycles of 95° C. for 10 seconds and 55° C. for 30 seconds. Melt curves were generated for each sample by heating PCR amplicons from 65° C. to 95° C. with a gradual increase of 0.5° C./0.5 s.

[6] = system: HT-29 cells; format: cell-based; conditions: HT-29 human colorectal adenocarcinoma cells, 72 hours; read-out: IC50 of toxicity
Protocol: HT-29 cells (ATCC) were seeded in 24-well plates at 200,000 cells per well. DNAzyme were added to the medium at different concentrations. After 72 hours, PrestoBlue reagent (A13262, Life Technologies Ltd.) was added as a cell viability indicator.

[7] = system: β-lactamase; conditions: DNAzyme 1.25 M (so in the source) with 128 μg/ml meropenem, 1 h; vs untreated control
Protocol: Bacterial strains were streaked from frozen LB+glycerol stocks onto LB agar plates and incubate for 24 hours at 37° C. Single colonies were grown overnight at 37° C. in 3 ml of LB. Cultures were diluted 1:1000 in 2 ml LB supplemented with 128 μg/ml meropenem and DNAzyme were added to a final concentration of 1.25 M. Cultures were incubated at 37° C. with continuous shaking for 1 h. Measurement of the β-lactamase activity assay was done using colorimetric kit (abcam), according to the manufacture's protocol.

Compound | MIC ([1]; Klebsiella pneumoniae, ATCCBAA1705, without DNAzyme) | reduction of capacity of the bacteria to infect and colonize lung tissue (bacterial load in the tissue) [2] | reduction of the free-living cells that remained in the growth media [2] | reduction of the viability of the larvae ([3]; sub-toxic meropenem 10 μg/g alone or with scramble) | reduction of bacterial load in the infection site [4] | reduction of transcript levels of bla-KPC [5] | growth inhibitory effect (optical density) ([1]; combination of subtoxic meropenem concentration and DNAzyme) | effect on viability of the bacterial cells (cell counts over time) ([1]; combined treatment of meropenem and DNAzyme) | reduction of MIC levels ([1]; meropenem MIC with vs without DNAzyme) | MIC of meropenem ([1]; with addition of DNAzyme KPC-337) | larvae viability ([3]; sub-toxic meropenem 10 μg/g with DNAzyme (8.52 μg/g)) | IC50 [6] | reduction of β-lactamase activity [7]
C[C@@H](O)[C@H]1C(=O)N2C(C(=O)O)=C(S[C@@H]3CN[C@H](C(=O)N(C)C)C3)[C@H](C)[C@H]12 [meropenem, reference compound] | 256 µg/mL | did not reduced the bacterial load | did not reduced the bacterial load | 40% | slightly reduced the bacterial load | – | – | – | – | – | – | – | –
GCCTGTTGggctagctacaacgaCAGATATTT/3CholTEG/ (GCCTGTTGGGCTAGCTACAACGACAGATATTT; 3' {3CholTEG}, sugars by position and backbone not given here) [KPC-337] | – | 1.5-2 fold | 1-1.5 fold change | – | 2-3 log fold | two fold | complete arrest of growth | bactericidal | two fold | 128 µg/mL | 100% | 20 µM | 70%
